Laboratory results reported in patent US9028855B2, “Plant additives and uses thereof to modulate the synthesis of membrane glycerolipids in planta” (Commissariat a l'Energie Atomique et aux Energies …, priority 2009, dated 2015).
“Also recorded” adds a separate entry of the source.

Tests used:
[1] = test system: phosphate transporter PHT1;4; test: 8′G::GUS, follow-up of the expression of the phosphate transporter PHT1;4 (GUS staining); format: in vivo, A. thaliana; details: compound added to the cultivation medium
Description: 8′G cell line was obtained as follows: for the PHT1;4 promoter fusion, a 2 kb region upstream of the ORF of PHT1;4 was cloned in the vector pENTR/D-TOPO (pENTRT™/D-TOPO® Cloning Kit, ref. K2400-20, Invitrogen) and transferred to pKGWFS7 (Karimi et al., 2002) by recombination using Gateway BP (Gateway® BP Clonase® enzyme mix, ref. 11789-013, Invitrogen) and LR Clonase enzyme mixes (LR Clonase® II Plus enzyme, ref. 12538-120, Invitrogen), respectively, to produce the pPHT1;4:GUS-GFP gene fusion. This fusion was then introduced into the Arabidopsis genome via the Agrobacterium-mediated transformation system (Logemann et al., 2006).
Plants were examined for GUS activity by dipping the samples in a GUS staining solution (50 mM sodium phosphate buffer pH 7.0; 0.01% Triton X-100, 1 mM K3Fe(CN)6, 1 mM K4Fe(CN)6, 1 mg/ml 5-dromo-4-chloro-3-indolyl (3-D-GLUCURONIDE (X-Gluc A) and incubated at 37° C. over-night. After staining, the plants were fixed 2 hours in 50 mM sodium phosphate buffer pH 7.0; 1% glutaraldehyde; 4% formaldehyde.

[2] = test system: wild type seedlings; test: Anthocyanins content (spectrophotometric); format: in vivo, A. thaliana; parameters: key to Antho: anthocyanin content as A530 - 2.2*A652; details: accumulation of anthocyanes; +P control 46, −P 1008
Experimental: Anthocyanins were extracted with propanol:HCl:H2O (81:1:18) for 5 min at room temperature and 3 min at 100° C. Samples are centrifuged for 10 min at 4° C. Supernatants were collected and absorption measured at 530 nm and […]. Anthocyanin content was calculated as A530-2.2A652 (Lange et al., 1971).

[3] = test system: A. thaliana; test: Root growth (primary root) of plants on high phosphate medium supplied with compound; format: in vivo; details: for Root Growth: expressed as a percentage having regard to a control, +P control 100, −P 20; for primary root growth (in words): high phosphate medium supplied with compound
Description: In response to phosphate starvation, the primary root growth is inhibited (Svistoonoff et al., 2007).

SMILES | PHT1;4 expression (in words, summary of analogues) [1] | Antho [2] | Root Growth [3] | primary root growth (in words) [3]
Cc1ccc(NC=C2C(=O)CC(C)(C)CC2=O)cc1 [#1] | induced PHT 1;4 expression | 274 | 64 % of control | without altering the root growth
CC1(C)CC(=O)C(=CNc2ccc(Br)cc2)C(=O)C1 [#2] |  | 258 | 59 % of control | 
CC1(C)CC(=O)C(=CNc2ccc(F)c(Cl)c2)C(=O)C1 [#3] |  | 806 | 41 % of control | 
CC1(C)CC(=O)C(=CNc2cc(Cl)cc(Cl)c2)C(=O)C1 [#4] |  | 210 | 50 % of control | 
CC1(C)CC(=O)C(=CNc2ccc(F)cc2)C(=O)C1 [#5] | induced PHT 1;4 expression; also recorded: induce expression of the Pht1;4 gene | 110 | 73 % of control | without altering the root growth; also recorded: do not induce a reduction of the root growth
Cc1ccc(NC=C2C(=O)CC(C)(C)CC2=O)cc1Cl [#6] |  |  | 53 % of control | 
Cc1cccc(NC=C2C(=O)CC(C)(C)CC2=O)c1 [#7] | induced PHT 1;4 expression | 172 | 75 % of control | without altering the root growth
CC1(C)CC(=O)C(=CNc2ccc(I)cc2)C(=O)C1 [#8] |  | 37 | 56 % of control | 
Cc1ccc(NC=C2C(=O)CC(C)(C)CC2=O)c(C)c1 [#9] |  | 130 | 71 % of control | 
CC1(C)CC(=O)C(=CNc2cccc(Cl)c2)C(=O)C1 [#10] |  | 225 | 41 % of control | 
CC1(C)CC(=O)C(=CNCc2ccccn2)C(=O)C1 [#11] | induced PHT 1;4 expression | 163 | 63 % of control | without altering the root growth
Cc1c(Cl)cccc1NC=C1C(=O)CC(C)(C)CC1=O [#12] |  | 850 | 57 % of control | 
CC1(C)CC(=O)C(=CNc2ccncc2)C(=O)C1 [#13] |  | 513 | 42 % of control | 
CC1(C)CC(=O)C(=CNc2ccc(F)c(F)c2)C(=O)C1 [#14] | induced PHT 1;4 expression | 150 | 61 % of control | without altering the root growth
CC1(C)CC(=O)C(=CNc2ccccn2)C(=O)C1 [#15] |  | 283 | 40 % of control | 
CC1(C)CC(=O)C(=CNc2cccnc2)C(=O)C1 [#16] |  | 431 | 40 % of control | 
O=C1CC(c2ccccc2)CC(=O)C1=CNCc1ccccn1 (centres unmarked) [#17] |  | 408 | 60 % of control | 
Cc1cccc(CN/C=C2/C(=O)Nc3ccccc32)n1 [#18] |  | 195 | 88 % of control | 

SMILES | PHT1;4 expression (in words, summary of analogues) [1] | Antho [2] | Root Growth [3] | primary root growth (in words) [3]
Cc1ccc(NC=C2C(=O)CC(C)(C)CC2=O)nc1 [#19] |  | 193 | 47 % of control | 
CC1(C)CC(=O)C(=CNc2ncc(C(F)(F)F)cc2Cl)C(=O)C1 [#20] | induced PHT 1;4 expression; also recorded: induce expression of the Pht1;4 gene | 142 | 72 % of control | without altering the root growth; also recorded: do not induce a reduction of the root growth
CC1(C)CC(=O)C(=CNc2cccc([N+](=O)[O-])c2)C(=O)C1 [#24] |  | 240 | 54 % of control | 
CC(=NO)c1ccc(NC=C2C(=O)CC(C)(C)CC2=O)cc1 [#25] |  | 405 | 63 % of control | 
Cc1ccnc(NS(=O)(=O)c2ccc(NC=C3C(=O)CC(C)(C)CC3=O)cc2)n1 [#26] |  | 640 | 6 % of control | 
CC1(C)CC(=O)C(=CNc2ccc(Br)cc2)C(=O)C1 [#27] | induced PHT 1;4 expression; also recorded: induce expression of the Pht1;4 gene | 43 | 98 % of control | without altering the root growth; also recorded: do not induce a reduction of the root growth
O=C1CC(c2ccccc2)CC(=O)C1=CNc1ccccc1 (centres unmarked) [#28] | induce expression of the Pht1;4 gene | 247 | 100 % of control | do not induce a reduction of the root growth
CCC1CC(=O)C(=CNc2cc(F)cc(F)c2)C(=O)C1 (centres unmarked) [#32] |  | 103 | 13 % of control | 
O=C1CCCC(=O)C1=CNc1cc(Cl)cc(Cl)c1 [#33] |  | 167 | 59 % of control | 
CC(=O)c1ccc(NC=C2C(=O)CC(C)(C)CC2=O)cc1 [#34] |  | 289 | 59 % of control | 
CSc1ccc(NC=C2C(=O)CC(C)(C)CC2=O)cc1 [#35] |  | 208 | 60 % of control | 
CC1(C)CC(=O)C(=CNc2ccc(S(C)(=O)=O)cc2)C(=O)C1 [#36] |  | 235 | 58 % of control | 
COc1ccc(NC=C2C(=O)CC(C)(C)CC2=O)cc1OC [#37] | induce expression of the Pht1;4 gene | 204 | 69 % of control | do not induce a reduction of the root growth
CC1(C)CC(=O)C(=CNc2ccc(O)cc2)C(=O)C1 [#38] |  | 206 | 60 % of control | 
CC1(C)CC(=O)C(=CNc2ccccc2C(N)=O)C(=O)C1 [#39] |  | 183 | 60 % of control | 
O=C1CCCC(=O)C1=CNc1ccc(Cl)c(Cl)c1 [#43] | induced PHT 1;4 expression; also recorded: induce expression of the Pht1;4 gene | 186 | 67 % of control | without altering the root growth; also recorded: do not induce a reduction of the root growth
O=C1CCCC(=O)C1=CNc1ccc(Cl)cc1Cl [#44] | induced PHT 1;4 expression; also recorded: induce expression of the Pht1;4 gene | 123 | 68 % of control | without altering the root growth; also recorded: do not induce a reduction of the root growth
COc1cccc(NC=C2C(=O)CC(C)(C)CC2=O)c1 [#47] | induced PHT 1;4 expression; also recorded: induce expression of the Pht1;4 gene | 324 | 70 % of control | without altering the root growth; also recorded: do not induce a reduction of the root growth
